What is called pIC50 is the IC50 on a negative log10 scale, so that one unit is a factor of ten. For orientation: pEC50 means the negative decadic logarithm of the EC50, by convention in mol/L.

pEC50, pIC50: −log10 of the molar value. Read-outs that look alike come from different tables or passages of the source.

Holding throughout (format): cell-based
The target of one test is T1, human 5-HT2A receptor (Homo sapiens, UniProt P28223).
T1 construct: host or cells: CHO-K1
Kind of test: 5HT2A Antagonism Assay (Euroscreen FAST-05051), IP-One HTRF. Summed up:
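CHO-K1 cells expressing receptor, 20,000/well, co-incubated with test compound and reference agonist at its EC80 for 60 min at 37 °C. IP1 accumulation read by HTRF after ~1 h detection at room temperature. Compounds tested in duplicate at 0.3–10,000 nM.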
For orientation: Time-resolved FRET reads energy transfer from a long-lived donor to a nearby acceptor.

The target of a further test is T2, human 5-HT7 receptor (Homo sapiens, UniProt P34969).
T2 construct: host or cells: CHO-K1
Kind of test: 5HT7 Antagonism Assay (Euroscreen FAST-0499C), cAMP HTRF. Particulars: CHO-K1 cells expressing human 5-HT7, reference agonist at EC80, cAMP HTRF. Summed up: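 CHO-K1 cells expressing human 5-HT7, 3000 per well in Krebs-Ringer HEPES with 1 mM IBMX, were exposed for 30 minutes at room temperature to compound plus reference agonist at its EC80. cAMP was read by HTRF after 1 hour; compounds were tested in duplicate from 0.3 to 10,000 nM.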

A further test deals with T3, human TAAR1 receptors (Homo sapiens, UniProt Q96RJ0).
T3 construct: host or cells: CHO-K1
T3 sequence (Q96RJ0 1-339): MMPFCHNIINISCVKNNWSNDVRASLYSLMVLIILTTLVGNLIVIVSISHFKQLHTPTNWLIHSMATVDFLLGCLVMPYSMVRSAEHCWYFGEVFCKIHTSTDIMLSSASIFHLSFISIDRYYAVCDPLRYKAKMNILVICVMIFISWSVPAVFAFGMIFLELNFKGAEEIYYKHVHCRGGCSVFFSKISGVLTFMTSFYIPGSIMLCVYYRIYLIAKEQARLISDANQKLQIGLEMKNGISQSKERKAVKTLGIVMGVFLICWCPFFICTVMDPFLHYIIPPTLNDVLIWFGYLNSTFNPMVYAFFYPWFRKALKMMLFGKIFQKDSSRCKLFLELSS
Kind of test: TAAR1 Agonism Assay: cAMP HTRF assay for Gs coupled receptor TAAR1 (Euroscreen FAST-0987C). Particulars: CHO-K1 cells expressing human TAAR1, cAMP HTRF. In a few lines: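 cAMP accumulation detected by HTRF fluorescence ratio, reagents added in lysis buffer and incubated 1 h at about room temperature. Beforehand, cells (about 3,000 per well) sat with test compound at ten concentrations from 0.3 to 10,000 nM in duplicate for roughly 30 min at about room temperature; tyramine dose-response run alongside.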

[1] abbreviates: 5-HT2A (IC50), CHO-K1 cells expressing human 5-HT2A, reference agonist at EC80, IP-One.
Where [2] appears, read: CHO-K1 cells expressing human 5-HT2A, reference agonist at EC80, IP-One, read-out: 5-HT2A (IC50).
[3] abbreviates: read-out: 5-HT2A (IC50), CHO-K1 cells expressing human 5-HT2A, reference agonist at EC80, IP-One.

T2 sequence (P34969 whole entry): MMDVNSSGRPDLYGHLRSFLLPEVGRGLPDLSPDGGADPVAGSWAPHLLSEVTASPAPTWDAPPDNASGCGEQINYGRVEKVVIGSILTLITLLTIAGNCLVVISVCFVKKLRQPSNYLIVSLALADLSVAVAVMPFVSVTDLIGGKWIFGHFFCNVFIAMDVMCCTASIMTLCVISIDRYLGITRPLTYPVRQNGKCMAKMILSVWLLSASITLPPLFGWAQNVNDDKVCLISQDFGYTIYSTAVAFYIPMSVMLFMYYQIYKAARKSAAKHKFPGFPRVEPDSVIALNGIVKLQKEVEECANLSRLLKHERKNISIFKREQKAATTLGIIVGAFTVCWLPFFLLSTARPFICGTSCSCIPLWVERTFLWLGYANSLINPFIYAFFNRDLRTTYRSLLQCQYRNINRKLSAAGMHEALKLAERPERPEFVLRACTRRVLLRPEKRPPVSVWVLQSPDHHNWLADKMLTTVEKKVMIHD
T1 sequence (P28223 whole entry): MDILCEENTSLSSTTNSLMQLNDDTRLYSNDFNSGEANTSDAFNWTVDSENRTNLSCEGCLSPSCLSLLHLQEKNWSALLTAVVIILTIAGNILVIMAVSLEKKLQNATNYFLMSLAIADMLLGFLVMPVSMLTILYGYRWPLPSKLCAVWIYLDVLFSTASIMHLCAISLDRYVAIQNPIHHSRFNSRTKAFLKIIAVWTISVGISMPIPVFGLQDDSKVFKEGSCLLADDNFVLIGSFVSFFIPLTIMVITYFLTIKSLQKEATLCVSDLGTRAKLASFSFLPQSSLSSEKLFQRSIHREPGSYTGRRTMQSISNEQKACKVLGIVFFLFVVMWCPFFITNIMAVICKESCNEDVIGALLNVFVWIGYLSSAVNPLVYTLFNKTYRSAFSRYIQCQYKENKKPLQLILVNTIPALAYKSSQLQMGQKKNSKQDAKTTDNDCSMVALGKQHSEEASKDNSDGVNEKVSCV

With `CNCC1Cc2ccccc2Oc2ccc(C)nc21` (single isomer, unassigned) [Compound 150, (R*)-(2-methyl-10,11-dihydrobenzo[6,7]oxepino[3,2-b]pyridin-11-yl)-N-methylmethanamine], the pIC50 is > 6.00 on human 5-HT2A receptor (setting [1]) and 5.00 to 6.00 at human 5-HT7 receptor. In addition, the negative-log EC50 (pEC50) on human TAAR1 receptors is > 6.00.
For the molecule `CCc1ccc2c(n1)C(CN)Cc1ccccc1O2` (single isomer, unassigned) [Compound 151, (R*)-(2-ethyl-10,11-dihydrobenzo[6,7]oxepino[3,2-b]pyridin-11-yl)methanamine], the pIC50 on human 5-HT2A receptor (setting [1]) was > 6.00; at human 5-HT7 receptor, ≤ 5.00. Also, the pEC50 on human TAAR1 receptors was > 6.00.
As to `CCc1ccc2c(n1)C(CNC)Cc1ccccc1O2` (single isomer, unassigned) [Compound 152, (R*)-(2-ethyl-10,11-dihydrobenzo[6,7]oxepino[3,2-b]pyridin-11-yl)-N-methylmethanamine], the results for the negative-log IC50 (pIC50) at human 5-HT2A receptor (setting [1]) and at human 5-HT7 receptor were > 6.00 and 5.00 to 6.00, respectively. For the same molecule, at human TAAR1 receptors, the pEC50 was > 6.00.
Take `NCC1Cc2c(F)cncc2Oc2ccccc21` (single isomer, unassigned) [Compound 153, (R*)-(4-fluoro-5,6-dihydrobenzo[6,7]oxepino[2,3-c]pyridin-6-yl)methanamine]: the pIC50 on human 5-HT2A receptor (setting [1]) was > 6.00; on human 5-HT7 receptor, ≤ 5.00. The pEC50 at human TAAR1 receptors is > 6.00.
As for `NCC1Cc2c(F)cncc2Oc2ccccc21` (single isomer, unassigned) [Compound 154, (S*)-(4-fluoro-5,6-dihydrobenzo[6,7]oxepino[2,3-c]pyridin-6-yl)methanamine], the figures for the pIC50 at human 5-HT2A receptor (setting [1]) and on human 5-HT7 receptor were 5.00 to 6.00 and ≤ 5.00, respectively. Also, the pEC50 on human TAAR1 receptors is < 5.00.
On to `NCC1Cc2ncccc2Oc2cccc(F)c21` (single isomer, unassigned) [Compound 156, (S*)-(9-fluoro-10,11-dihydrobenzo[6,7]oxepino[3,2-b]pyridin-10-yl)methanamine], for which the pIC50 at human 5-HT2A receptor (setting [1]) is < 5.00; on human 5-HT7 receptor it was ≤ 5.00. Besides, on human TAAR1 receptors, the pEC50 was > 6.00.
`CNCC1Cc2ncccc2Oc2cccc(F)c21` (single isomer, unassigned) [Compound 158, (S*)-(9-fluoro-10,11-dihydrobenzo[6,7]oxepino[3,2-b]pyridin-10-yl)-N-methylmethanamine]: the negative-log IC50 (pIC50) at human 5-HT2A receptor (setting [2]) was < 5.00; on human 5-HT7 receptor, ≤ 5.00. Besides, at human TAAR1 receptors, the pEC50 is 5.00 to 6.00.
As to `N#Cc1ccc2c(c1)C(CN)Cc1ncccc1O2` (single isomer, unassigned) [Compound 159, (R*)-10-(aminomethyl)-10,11-dihydrobenzo[6,7]-oxepino[3,2-b]pyridine-8-carbonitrile], the figures for the pIC50 on human 5-HT2A receptor (setting [1]) and at human 5-HT7 receptor were < 5.00 and ≤ 5.00, respectively. On human TAAR1 receptors, this molecule had a pEC50 of 5.00 to 6.00.
In the case of `N#Cc1ccc2c(c1)C(CN)Cc1ncccc1O2` (single isomer, unassigned) [Compound 160, (S*)-10-(aminomethyl)-10,11-dihydrobenzo[6,7]oxepino[3,2-b]pyridine-8-carbonitrile], the pIC50 is > 6.00 on human 5-HT2A receptor (setting [1]) and 5.00 to 6.00 on human 5-HT7 receptor. Also, the pEC50 on human TAAR1 receptors was > 6.00.
For the molecule `CNCC1Cc2ncccc2Oc2ccc(C#N)cc21` (single isomer, unassigned) [Compound 161, (R*)-10-((methylamino)methyl)-10,11-dihydrobenzo[6,7]oxepino[3,2-b]pyridine-8-carbonitrile], the pIC50 was 5.00 to 6.00 at human 5-HT2A receptor (setting [2]) and ≤ 5.00 at human 5-HT7 receptor. At human TAAR1 receptors, the pEC50 is < 5.00.
Consider `CNCC1Cc2ncccc2Oc2ccc(C#N)cc21` (single isomer, unassigned) [Compound 162, (S*)-10-((methylamino)methyl)-10,11-dihydrobenzo[6,7]oxepino[3,2-b]pyridine-8-carbonitrile], for which the figures for the negative-log IC50 (pIC50) at human 5-HT2A receptor (setting [2]) and at human 5-HT7 receptor were 5.00 to 6.00 and ≤ 5.00, respectively. Also, the pEC50 on human TAAR1 receptors was < 5.00.
As for `NCC1Cc2ncccc2Oc2ccc(F)cc21` (single isomer, unassigned) [Compound 163, (R*)-(8-fluoro-10,11-dihydrobenzo[6,7]oxepino[3,2-b]pyridin-10-yl)methanamine], the figures for the pIC50 on human 5-HT2A receptor (setting [1]) and on human 5-HT7 receptor were 5.00 to 6.00 and ≤ 5.00, respectively. Moreover, the pEC50 at human TAAR1 receptors was 5.00 to 6.00.
As for `NCC1Cc2ncccc2Oc2ccc(F)cc21` (single isomer, unassigned) [Compound 164, (S*)-(8-fluoro-10,11-dihydrobenzo[6,7]oxepino[3,2-b]pyridin-10-yl)methanamine], the pIC50 on human 5-HT2A receptor (setting [3]) is 5.00 to 6.00; at human 5-HT7 receptor it was ≤ 5.00. The pEC50 at human TAAR1 receptors was > 6.00.
As to `CNCC1Cc2ncccc2Oc2ccc(F)cc21` (single isomer, unassigned) [Compound 165, (R*)-(8-fluoro-10,11-dihydrobenzo[6,7]oxepino[3,2-b]pyridin-10-yl)-N-methylmethanamine], the values for the pIC50 on human 5-HT2A receptor (setting [1]) and on human 5-HT7 receptor were > 6.00 and ≤ 5.00, respectively. Also, the negative logarithm of the EC50 (pEC50) on human TAAR1 receptors was < 5.00.
With `CNCC1Cc2ncccc2Oc2ccc(F)cc21` (single isomer, unassigned) [Compound 166, (S*)-(8-fluoro-10,11-dihydrobenzo[6,7]oxepino[3,2-b]pyridin-10-yl)-N-methylmethanamine], the pIC50 is > 6.00 at human 5-HT2A receptor (setting [3]) and 5.00 to 6.00 at human 5-HT7 receptor. The pEC50 on human TAAR1 receptors is > 6.00.
Regarding `NCC1Cc2ncccc2Oc2ccc(Cl)cc21` (single isomer, unassigned) [Compound 167, (R*)-(8-chloro-10,11-dihydrobenzo[6,7]oxepino[3,2-b]pyridin-10-yl)methanamine], the pIC50 at human 5-HT2A receptor (setting [1]) was 5.00 to 6.00; at human 5-HT7 receptor, ≤ 5.00. The pEC50 at human TAAR1 receptors was > 6.00.
As to `CNCC1Cc2ncccc2Oc2ccc(Cl)cc21` (single isomer, unassigned) [Compound 170, (S*)-1-(8-chloro-10,11-dihydrobenzo[6,7]oxepino[3,2-b]pyridin-10-yl)-N-methylmethanamine], the pIC50 at human 5-HT2A receptor (setting [1]) and at human 5-HT7 receptor was > 6.00 each time. The pEC50 on human TAAR1 receptors is > 6.00.
In the case of `NCC1Cc2ncccc2Oc2cc(Cl)ccc21` (single isomer, unassigned) [Compound 171, (R*)-(7-chloro-10,11-dihydrobenzo[6,7]oxepino[3,2-b]pyridin-10-yl)methanamine], the pIC50 on human 5-HT2A receptor (setting [1]) was > 6.00; at human 5-HT7 receptor it was ≤ 5.00. The pEC50 at human TAAR1 receptors is 5.00 to 6.00.
On to `NCC1Cc2ncccc2Oc2cc(Cl)ccc21` (single isomer, unassigned) [Compound 172, (S*)-(7-chloro-10,11-dihydrobenzo[6,7]oxepino[3,2-b]pyridin-10-yl)methanamine], for which the pIC50 is > 6.00 on human 5-HT2A receptor (setting [3]) and ≤ 5.00 at human 5-HT7 receptor. Besides, the pEC50 on human TAAR1 receptors was > 6.00.
Consider `CNCC1Cc2ncccc2Oc2cc(Cl)ccc21` (single isomer, unassigned) [Compound 173, (R*)-1-(7-chloro-10,11-dihydrobenzo[6,7]oxepino[3,2-b]pyridin-10-yl)-N-methylmethanamine], for which the negative-log IC50 (pIC50) on human 5-HT2A receptor (setting [2]) is > 6.00; at human 5-HT7 receptor it was ≤ 5.00. Besides, on human TAAR1 receptors, the pEC50 is < 5.00.
For the molecule `CNCC1Cc2ncccc2Oc2cc(Cl)ccc21` (single isomer, unassigned) [Compound 174, (S*)-1-(7-chloro-10,11-dihydrobenzo[6,7]oxepino[3,2-b]pyridin-10-yl)-N-methylmethanamine], the values for the pIC50 at human 5-HT2A receptor (setting [2]) and at human 5-HT7 receptor were > 6.00 and 5.00 to 6.00, respectively. The negative-log EC50 (pEC50) at human TAAR1 receptors is < 5.00.
With `NCC1Cc2ncccc2Oc2c(F)cccc21` (single isomer, unassigned) [Compound 176, (S*)-(6-fluoro-10,11-dihydrobenzo[6,7]oxepino[3,2-b]pyridin-10-yl)methanamine], the negative-log IC50 (pIC50) was < 5.00 at human 5-HT2A receptor (setting [1]) and ≤ 5.00 on human 5-HT7 receptor. At human TAAR1 receptors, the pEC50 is > 6.00.
Regarding `NCC1Cc2ncc(Cl)cc2Oc2ccccc21` (single isomer, unassigned) [Compound 179, (R*)-(3-chloro-10,11-dihydrobenzo[6,7]oxepino[3,2-b]pyridin-10-yl)methanamine], the figures for the pIC50 on human 5-HT2A receptor (setting [1]) and at human 5-HT7 receptor were 5.00 to 6.00 and ≤ 5.00, respectively. The pEC50 at human TAAR1 receptors is 5.00 to 6.00.
Turning to `NCC1Cc2ncc(Cl)cc2Oc2ccccc21` (single isomer, unassigned) [Compound 180, (S*)-(3-chloro-10,11-dihydrobenzo[6,7]oxepino[3,2-b]pyridin-10-yl)methanamine], the pIC50 at human 5-HT2A receptor (setting [3]) is 5.00 to 6.00; on human 5-HT7 receptor it was ≤ 5.00. Moreover, the pEC50 on human TAAR1 receptors was > 6.00.
